Ten compounds from patent publication US20260234124A1, “Substituted Pyrazolyl-Pyridinyl Compounds as Ligand Directed Degraders of IRAK3” (Celgene Corporation, priority 2022, published 2026) can be followed below.

The assay concerns the target T1, IRAK3-ePL (Homo sapiens, UniProt Q9Y616).
T1 construct: expressed in transfected cells; host or cells: 293T CRBN OE/GSPT1 G575N KI cells, lentiviral transduction, puromycin selection
The assay can be described thus: IRAK3-ePL overexpressing degradation assay. The assay is classed as cell-based. To be noted: IRAK3-ePL Lenti-X 293T CRBN/GSPT1 G575N cells, overnight incubation, top dose 10 μM; for Dmax: HEK-293T, maximum percentage loss of target protein; for DC50: read-out: IRAK3 ePL degradation EC50. As to the method: Example B1. IRAK3-ePL Overexpressing Degradation Assay
Stable cell lines were generated by the following protocol. 3×10^5 Lenti-X 293T cells (Clonetech) were plated in 0.8 mL of media in a 12-well plate and incubated overnight at 37° C./5% CO2. Packaging plasmid (0.4 μg, pMD), envelope plasmid (0.4 μg, pSP), and lentiviral transfer IRAK3-ePL plasmid (0.8 μg, IRAK3 sequence NM_007199.3) were mixed in 0.1 mL of Opti-MEM and incubated for 5 min. Simultaneously, 2.4 μL of Lipofectamine 2000 (Invitrogen) was added to 0.1 mL of Opti-MEM (Gibco) and incubated for 5 min. The plasmid DNA and lipofectamine were combined and the mixture was allowed to incubate for 20 min. DNA:Lipofectamine Opti-MEM mixtures were then added to previously plated cells dropwise and the cells were incubated for ~16 h at 37° C./5% CO2. Following incubation, the media was removed and 1.2 mL of fresh media was added per well. Lenti-X 293T cells were incubated for ~30 h at 37° C./5% CO2. […] Following incubation, media was removed from the Lenti-X 293T wells and passed through a […]. Part of the viral supernatant was used to transduce cells and the rest was stored at −80° C. Viruses were then added individually (0.5 mL virus) to each well of the 293T^CRBN OE/GSPT1 G575N KI cells, followed by addition of polybrene (10 mg/mL Millipore) to each well at a final concentration of 5.0 μg/mL. Cells were incubated for ~24 h at 37° C./5% CO2. After aspirating media off plates, cells were washed with DPBS, trypsinized and plated in a 10 cm dish in 15 mL of media and 1 μg/mL puromycin. Following incubation of cells for ~72 h at 37° C./5% CO2, media was aspirated off plates, and cells were washed with DPBS and trypsinized. The cells were plated in a 15 cm dish in 40 mL of media with 1.0 μg/mL Puromycin (Gibco) and incubated for ~72 h at 37° C./5% CO2. Following incubation, media was removed and cells were washed with DPBS and trypsinized. The majority of cells were resuspended in Invitrogen freezing media and stored away (~6-8×10^6 cells/vial).
IRAK3-ePL cellular dose response curve degradation assays were performed by the following protocol. Compounds to be tested were dispensed into a white 384-well tissue-culture treated plate using an acoustic liquid handler. Dilutions were prepared based on a 25 μL assay volume in duplicate 10 point 3-fold serial dilutions starting with a 10 μM dose. Negative control wells were included, which only contain 0.2% DMSO to calculate 100% signal. Positive control wells containing 30 μM Ataluren (luciferase inhibitor) were included to calculate the background signal level. All wells were backfilled to a final DMSO concentration of 0.2% to ensure DMSO uniformity across wells. IRAK3-ePL expressing cells (IRAK3-ePL Lenti-X 293T^CRBN/GSPT1 G575N) were washed, trypsinized, counted, and resuspended in fresh DMEM (Gibco) to give a cell concentration of 200,000 cells/mL. 25 μL of cells (5,000 cells/well) were dispensed into the wells of the 384-well plate prespotted with compounds in the previous step and incubated overnight at 37° C./5% CO2. Following incubation, the 384-well plate was taken out of the incubator and left at room temperature for 30 min. InCELL hunter reagent was prepared according to manufacturer's instructions (EA reagent, lysis buffer, and substrate reagent in a 1:1:4 ratio, Cat #96-0002, DiscoverX), which was added to the 384-well plate 25 μL per well. Following the incubation of the plate for 1 h at room temperature, the luminescence signal was read using a ViewLux plate reader. Data was processed and analyzed in ActivityBase software. In short, the average luminescence values of the positive control wells were subtracted from the rest of the wells for background correction, and all luminescence values were normalized to the DMSO control wells. The average value of the DMSO control wells was set to equal 100% of the relative IRAK3-ePL protein levels. […]

In general, Dmax refers to the largest share of the target that was removed. Read a low Dmax as shallow degradation. For `C[C@@H](Oc1cc(-c2cnn(C3CCN(CCOCCOCCOCCOCCNC(=O)COc4ccc5c(c4)C(=O)N(C4CCC(=O)NC4=O)C5=O)CC3)c2)cnc1N)c1c(Cl)ccc(F)c1Cl` (stereo partly drawn) [Compound 17, N-(14-(4-(4-(6-amino-5-((R)-1-(2,6-dichloro-3-fluorophenyl)ethoxy)pyridin-3-yl)-1H-pyrazol-1-yl)piperidin-1-yl)-3,6,9,12-tetraoxatetradecyl)-2-((2-(2,6-dioxopiperidin-3-yl)-1,3-dioxoisoindolin-5-yl)oxy)acetamide], the Dmax stood at 18% and the DC50 was over 10 µM.

On to `Cc1ncsc1-c1ccc(CNC(=O)[C@@H]2C[C@@H](O)CN2C(=O)[C@@H](NC(=O)COCCOCCOCCN2CCC(n3cc(-c4cnc(N)c(O[C@H](C)c5c(Cl)ccc(F)c5Cl)c4)cn3)CC2)C(C)(C)C)cc1` [Compound 3, (2S,4R)-1-((S)-14-(4-(4-(6-amino-5-((R)-1-(2,6-dichloro-3-fluorophenyl)ethoxy)pyridin-3-yl)-1H-pyrazol-1-yl)piperidin-1-yl)-2-(tert-butyl)-4-oxo-6,9,12-trioxa-3-azatetradecanoyl)-4-hydroxy-N-(4-(4-methylthiazol-5-yl)benzyl)pyrrolidine-2-carboxamide], for which the Dmax was determined as 13% and the DC50 is over 10 µM.

In the case of `Cc1ncsc1-c1ccc(CNC(=O)[C@@H]2C[C@@H](O)CN2C(=O)[C@@H](NC(=O)CCCN2CCC(n3cc(-c4cnc(N)c(O[C@H](C)c5c(Cl)ccc(F)c5Cl)c4)cn3)CC2)C(C)(C)C)cc1` [Compound 1, (2S,4R)-1-((S)-2-(4-(4-(4-(6-amino-5-((R)-1-(2,6-dichloro-3-fluorophenyl)ethoxy)pyridin-3-yl)-1H-pyrazol-1-yl)piperidin-1-yl)butanamido)-3,3-dimethylbutanoyl)-4-hydroxy-N-(4-(4-methylthiazol-5-yl)benzyl)pyrrolidine-2-carboxamide], the greatest degradation seen (Dmax) turned out to be 8% and the DC50 was over 10 µM.

For the compound `C[C@@H](Oc1cc(-c2cnn(C3CCN(CCOCCNC(=O)COc4ccc5c(c4)C(=O)N(C4CCC(=O)NC4=O)C5=O)CC3)c2)cnc1N)c1c(Cl)ccc(F)c1Cl` (stereo partly drawn) [Compound 14, N-(2-(2-(4-(4-(6-amino-5-((R)-1-(2,6-dichloro-3-fluorophenyl)ethoxy)pyridin-3-yl)-1H-pyrazol-1-yl)piperidin-1-yl)ethoxy)ethyl)-2-((2-(2,6-dioxopiperidin-3-yl)-1,3-dioxoisoindolin-5-yl)oxy)acetamide], the Dmax amounted to 12% and the DC50 was over 10 µM.

Turning to `C[C@@H](Oc1cc(-c2cnn(C3CCN(CCOCCOCCOCCNC(=O)COc4cccc5c4C(=O)N(C4CCC(=O)NC4=O)C5=O)CC3)c2)cnc1N)c1c(Cl)ccc(F)c1Cl` (stereo partly drawn) [Compound 11, N-(2-(2-(2-(2-(4-(4-(6-amino-5-((R)-1-(2,6-dichloro-3-fluorophenyl)ethoxy)pyridin-3-yl)-1H-pyrazol-1-yl)piperidin-1-yl)ethoxy)ethoxy)ethoxy)ethyl)-2-((2-(2,6-dioxopiperidin-3-yl)-1,3-dioxoisoindolin-4-yl)oxy)acetamide], the greatest degradation seen (Dmax) was determined as 12% and the DC50 is over 10 µM.

On to `C[C@@H](Oc1cc(-c2cnn(C3CCN(CCNC(=O)COc4cccc5c4C(=O)N(C4CCC(=O)NC4=O)C5=O)CC3)c2)cnc1N)c1c(Cl)ccc(F)c1Cl` (stereo partly drawn) [Compound 8, N-(2-(4-(4-(6-amino-5-((R)-1-(2,6-dichloro-3-fluorophenyl)ethoxy)pyridin-3-yl)-1H-pyrazol-1-yl)piperidin-1-yl)ethyl)-2-((2-(2,6-dioxopiperidin-3-yl)-1,3-dioxoisoindolin-4-yl)oxy)acetamide], for which the greatest degradation seen (Dmax) stood at 12% and the DC50 was over 10 µM.

In the case of `C[C@@H](Oc1cc(-c2cnn(C3CCN(CCOCCOCCOCCOCCNC(=O)COc4cccc5c4C(=O)N(C4CCC(=O)NC4=O)C5=O)CC3)c2)cnc1N)c1c(Cl)ccc(F)c1Cl` (stereo partly drawn) [Compound 12, N-(14-(4-(4-(6-amino-5-((R)-1-(2,6-dichloro-3-fluorophenyl)ethoxy)pyridin-3-yl)-1H-pyrazol-1-yl)piperidin-1-yl)-3,6,9,12-tetraoxatetradecyl)-2-((2-(2,6-dioxopiperidin-3-yl)-1,3-dioxoisoindolin-4-yl)oxy)acetamide], the maximal degradation (Dmax) turned out to be 30% and the DC50 was over 10 µM.

Regarding `C[C@@H](Oc1cc(-c2cnn(C3CCN(CCOCCOCCNC(=O)COc4ccc5c(c4)C(=O)N(C4CCC(=O)NC4=O)C5=O)CC3)c2)cnc1N)c1c(Cl)ccc(F)c1Cl` (stereo partly drawn) [Compound 15, N-(2-(2-(2-(4-(4-(6-amino-5-((R)-1-(2,6-dichloro-3-fluorophenyl)ethoxy)pyridin-3-yl)-1H-pyrazol-1-yl)piperidin-1-yl)ethoxy)ethoxy)ethyl)-2-((2-(2,6-dioxopiperidin-3-yl)-1,3-dioxoisoindolin-5-yl)oxy)acetamide], the Dmax was 27% and the DC50 was over 10 µM.

Take `C[C@@H](Oc1cc(-c2cnn(C3CCN(C4CCC5(CC4)CCN(C(=O)c4cccc(NC6CCC(=O)NC6=O)c4)CC5)CC3)c2)cnc1N)c1c(Cl)ccc(F)c1Cl` (stereo partly drawn) [Compound 22, 3-((3-(9-(4-(4-(6-Amino-5-((R)-1-(2,6-dichloro-3-fluorophenyl)ethoxy)pyridin-3-yl)-1H-pyrazol-1-yl)piperidin-1-yl)-3-azaspiro[5.5]undecane-3-carbonyl)phenyl)amino)piperidine-2,6-dione]: the greatest degradation seen (Dmax) was determined as 78% and the DC50 was 0.066 µM.

With `C[C@@H](Oc1cc(-c2cnn(C3CCN(C4CCC5(CC4)CCN(C(=O)c4cccc6c4CN(C4CCC(=O)NC4=O)C6=O)CC5)CC3)c2)cnc1N)c1c(Cl)ccc(F)c1Cl` (stereo partly drawn) [Compound 21, 3-(4-(9-(4-(4-(6-amino-5-((R)-1-(2,6-dichloro-3-fluorophenyl)ethoxy)pyridin-3-yl)-1H-pyrazol-1-yl)piperidin-1-yl)-3-azaspiro[5.5]undecane-3-carbonyl)-1-oxoisoindolin-2-yl)piperidine-2,6-dione], the maximal degradation (Dmax) turned out to be 59% and the DC50 amounted to 0.105 µM.
